Results on seven compounds are retold here after paper PMC11106745 (ACS Chemical Biology, 2024).

In test [1] the target is T1, SARS-CoV-2 Mac1 (Severe acute respiratory syndrome coronavirus 2, UniProt P0DTD1). The experiment in a line: biochemical. The following applies: for koff: read-out: kdis. It is filed as binding.
In test [2] the target is T2, MERS-CoV Mac1 (Middle East respiratory syndrome-related coronavirus, UniProt K9N7C7). The experiment in a line: biochemical. It is filed as binding. To be noted: for koff: read-out: kdis.
For test [3], the target named is T3, CHIKV Mac (Chikungunya virus, UniProt Q8JUX6). The experiment in a line: biochemical. It counts as binding. To be noted: for koff: read-out: kdis.
Test [4] deals with VEEV Mac (Venezuelan equine encephalitis virus, UniProt P27282). The experiment in a line: biochemical. It counts as binding. To be noted: for koff: read-out: kdis.
Test [5] has as its target T1, SARS-CoV-2 Mac1. The experiment in a line: biochemical. It counts as binding. To be noted: IC50.
Test [6] has as its target T2, MERS-CoV Mac1. Kind of test: biochemical. It is filed as binding.
In test [7] the target is T3, CHIKV Mac. Kind of test: biochemical. It is filed as binding.
For test [8], the target named is T1, SARS-CoV-2 Mac1. The following applies: cited from earlier work.
Test [9] deals with T1, SARS-CoV-2 Mac1. The following applies: cited from earlier work. The source holds these as a separate data set.
The target in test [10] is T1, SARS-CoV-2 Mac1. To be noted: cited from earlier work. The source holds these as a separate data set.

“And” between values parts separate entries of the source, which are not always exact repeats. Equal entries are not always repeated. Where two headings read alike, the source gives them in different places.

T3 sequence (Q8JUX6 1334-1493 limits assumed): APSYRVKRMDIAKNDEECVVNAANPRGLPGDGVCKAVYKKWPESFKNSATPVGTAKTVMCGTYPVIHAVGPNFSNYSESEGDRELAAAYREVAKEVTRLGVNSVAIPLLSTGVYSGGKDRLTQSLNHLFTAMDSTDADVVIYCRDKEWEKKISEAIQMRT
T2 sequence (K9N7C7 1110-1276 limits assumed): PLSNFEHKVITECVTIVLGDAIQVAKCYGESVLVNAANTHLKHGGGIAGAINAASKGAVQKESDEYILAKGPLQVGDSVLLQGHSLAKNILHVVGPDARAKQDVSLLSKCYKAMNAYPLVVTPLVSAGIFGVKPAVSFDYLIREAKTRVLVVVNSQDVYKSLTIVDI
Sequence of VEEV Mac (P27282 1330-1489 limits assumed): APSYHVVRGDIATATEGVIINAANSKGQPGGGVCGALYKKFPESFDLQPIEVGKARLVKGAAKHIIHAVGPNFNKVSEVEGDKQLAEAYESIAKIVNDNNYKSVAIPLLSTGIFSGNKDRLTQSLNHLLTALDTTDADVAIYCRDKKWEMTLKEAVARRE

As for `Nc1ncnc2c1ncn2[C@@H]1O[C@H](COP(=O)(O)OP(=O)(O)OC[C@H]2O[C@H](n3cc(COCCOCCOCCOCCNC(=O)CCCC[C@@H]4SC[C@@H]5NC(=O)N[C@@H]54)nn3)[C@H](O)[C@@H]2O)[C@@H](O)[C@H]1O` [biotin-ADPr], the equilibrium dissociation constant (Kd) in test [1] amounted to 19600 nM; in [2], 2100 ± 100 nM; in [3] it was 5300 ± 200 nM. For the same compound, the kon in test [1] came out at 53000 ± 3000 M⁻¹ s⁻¹; in test [2] it was 320000 ± 10000 M⁻¹ s⁻¹; in test [3], 120000 ± 3000 M⁻¹ s⁻¹; in test [4], 140000 ± 8000 M⁻¹ s⁻¹. Further, the koff in test [1] turned out to be 1 ± 0.05 s⁻¹; in test [2], 0.7 ± 0.03 s⁻¹; in test [3], 0.65 ± 0.02 s⁻¹; in [4], 0.79 ± 0.04 s⁻¹. Also, the 50% inhibitory concentration (IC50) in test [5] came to 3500 nM; in [6], 6800 nM; in test [7], 22200 nM.
Regarding `N#C[C@@]1(c2ccc3c(N)ncnn23)O[C@H](COP(=O)(O)OP(=O)(O)OC[C@H]2O[C@H](n3cc(COCCOCCOCCOCCNC(=O)CCCC[C@@H]4SC[C@@H]5NC(=O)N[C@@H]54)nn3)[C@H](O)[C@@H]2O)[C@@H](O)[C@H]1O` [biotin-NDPr], the Kd was 280 ± 10 nM in [1]; 210 ± 10 nM in test [2]; 331 nM and 330 nM in [3]. Further, the “fold more potent than biotin-ADPr based on Kd” value in test [1] is around 70 fold. The kon in test [1] turned out to be 310000 ± 5000 M⁻¹ s⁻¹; in [2] it was 1.3e+06 ± 50000 M⁻¹ s⁻¹; in [3] it was 180000 ± 4000 M⁻¹ s⁻¹; in [4], 580000 ± 6000 M⁻¹ s⁻¹. Further, the koff was 0.085 ± 0.001 s⁻¹ in [1], 0.27 ± 0.01 s⁻¹ in test [2], 0.06 ± 0.0009 s⁻¹ in [3] and 0.076 ± 0.0008 s⁻¹ in test [4]. In addition, the “fold stronger than biotin-ADPr” value in test [3] was around 15 fold. The results for the IC50 in test [5], in test [6] and in test [7] were 57 nM, 1200 nM and 950 nM, respectively.
As for `Nc1ncnc2c1ncn2[C@@H]1O[C@H](COP(=O)(O)OP(=O)(O)OC[C@H]2O[C@H](Oc3ccc(Cn4cc(COCCOCCOCCOCCNC(=O)CCCC[C@@H]5SC[C@@H]6NC(=O)N[C@@H]65)nn4)cc3)[C@H](O)[C@@H]2O)[C@@H](O)[C@H]1O` [biotin-Ph-ADPr], the dissociation constant (Kd) came to 420 ± 10 nM in test [1], 100 ± 4 nM in test [2] and 6200 ± 200 nM in test [3]. The “fold more potent than biotin-ADPr based on Kd” value in test [1] is recorded as around 50 fold. For the same compound, the on-rate constant (kon) in [1] turned out to be 270000 ± 5000 M⁻¹ s⁻¹; in [2] it was 1.1e+06 ± 30000 M⁻¹ s⁻¹; in test [3] it was 19000 ± 500 M⁻¹ s⁻¹; in [4] it was 520000 ± 6000 M⁻¹ s⁻¹. Besides, the koff in test [1] was 0.11 ± 0.002 s⁻¹; in test [2], 0.11 ± 0.003 s⁻¹; in [3], 0.12 ± 0.002 s⁻¹; in test [4], 0.083 ± 0.0008 s⁻¹. Further, the figures for the “fold decrease in Kd compared to biotin-ADPr” value in test [2] and in test [4] were 20 fold and 30 fold, respectively. Moreover, the IC50 in test [5] was 130 nM; in test [6], 310 nM; in [7] it was above 10000 nM.
In the case of `N#C[C@@]1(c2ccc3c(N)ncnn23)O[C@H](COP(=O)(O)OP(=O)(O)OC[C@H]2O[C@H](Oc3ccc(Cn4cc(COCCOCCOCCOCCNC(=O)CCCC[C@@H]5SC[C@@H]6NC(=O)N[C@@H]65)nn4)cc3)[C@H](O)[C@@H]2O)[C@@H](O)[C@H]1O` [biotin-Ph-NDPr], the Kd in test [1] was 24 nM; in test [2], 17.2 nM and 17 nM; in [3], 570 ± 20 nM. Besides, the “fold more potent than biotin-ADPr based on Kd” value in test [1] was around 1000 fold. Besides, the “kdis fold smaller than that of biotin-ADPr” value in [1] is “more than 100 fold”. In addition, the kon was found to be 300000 ± 3000 M⁻¹ s⁻¹ in test [1], 1.8e+06 ± 10000 M⁻¹ s⁻¹ in test [2], 190000 ± 6000 M⁻¹ s⁻¹ in test [3] and 820000 ± 7000 M⁻¹ s⁻¹ in test [4]. The koff in [1] worked out at 0.0071 s⁻¹; in [2], 0.031 ± 0.0002 s⁻¹; in test [3], 0.11 ± 0.003 s⁻¹; in test [4] it was 0.014 ± 6e-05 s⁻¹. For the same compound, the “fold decrease in Kd compared to biotin-ADPr” value in [2] is around 100 fold; in [4], 400 fold. For the same compound, the concentration for half-maximal inhibition (IC50) in test [5] is 11 nM; in test [6], 100 nM; in test [7] it was 860 nM.
With `O=C(O)[C@H](Cc1c[nH]c2ccccc12)Nc1ncnc2[nH]ccc12` [compound 15c], the IC50 in test [8] is 6100 nM.
As to `COC(=O)c1c(NC(=O)[C@@H]2CCC[C@@H](C(=O)O)C2)sc2c1CCCCCC2` [compound 27], the 50% inhibitory concentration (IC50) in test [9] was 2100 nM.
Consider `Nc1ncnc2c1ncn2C1OC(COP(=O)(O)OP(=O)(O)OCC2OC(Oc3ccc([N+](=O)[O-])cc3)C(O)C2O)C(O)C1O` (stereo not drawn) [pNP-ADPr], for which, in [10], the IC50 was 370 nM and the “fold more potent than ADPr” value was above 20 fold.

One may read the Kd as the equilibrium constant for the complex coming apart. What is called kon is the second-order rate constant of association. As a reminder, the IC50 is the concentration at which inhibition is half-maximal.
